Results published in PubChem BioAssay (NCI).
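Where inhibition never reached the appropriate level, the endpoint shown equals the highest concentration tested. Otherwise, values were interpolated linearly from a five-concentration, 48-hour dose response in 96-well plates. Here, GI50 denotes the concentration required for 50% inhibition of growth. TGI denotes the concentration required for complete inhibition of growth.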

Columns and labels:
Assay in all cases: inhibition of tumour cell growth, NCI panel, 48 h
[1] = test system: EKVX NSCLC
[2] = test system: LOX IMVI melanoma
[3] = test system: K-562 leukemia
[4] = test system: IGROV1 ovarian
[5] = test system: KM12 colon
[6] = test system: HOP-92 NSCLC
[7] = test system: MDA-MB-435
[8] = test system: T-47D breast
[9] = test system: MCF7 breast
[10] = test system: BT-549 breast

Row | SMILES | TGI [1] | TGI [2] | TGI [3] | TGI [4] | TGI [5] | TGI [6] | TGI [7] | TGI [8] | TGI [9] | GI50 [1] | GI50 [2] | GI50 [10] | TGI [10] | GI50 [7] | GI50 [8] | GI50 [5] | GI50 [6] | GI50 [3] | GI50 [4] | GI50 [9]
1 | CC(C)N1C(C)[C@@H](c2ccccc2)O[P@@]1(=O)CC1=CCCCC1 (stereo partly specified) | > 100 µM | > 100 µM | > 100 µM | > 100 µM | > 100 µM | > 100 µM | – | – | – | – | – | – | – | – | – | – | – | – | – | –
2 | COC(=O)C(=O)C(C(C)=O)C(=O)NCc1ccccc1 (stereo unspecified) | > 100 µM | > 100 µM | > 100 µM | > 100 µM | > 100 µM | > 100 µM | – | – | – | – | – | – | – | – | – | – | – | – | – | –
3 | COc1cc([C@@H]2OC(=O)C3C2C(=O)O[C@H]3c2ccc(O)c(OC)c2)ccc1O (stereo partly specified) | – | > 100 µM | > 100 µM | > 100 µM | > 100 µM | > 100 µM | – | – | – | – | – | – | – | – | – | – | – | – | – | –
4 | O=C(NCCCl)Nc1ccccc1 | > 100 µM | > 100 µM | > 100 µM | > 100 µM | > 100 µM | > 100 µM | > 100 µM | > 100 µM | > 100 µM | – | – | – | – | – | – | – | – | – | – | –
5 | COc1c(-c2ccc3c(c2)OCO3)oc2cc(O)cc(O)c2c1=O | > 100 µM | > 100 µM | > 100 µM | > 100 µM | > 100 µM | > 100 µM | > 100 µM | 64.7 µM | 75.3 µM | – | – | – | – | – | – | – | – | – | – | –
6 | COc1ccc2c(CCCc3ccc(Cl)cc3Cl)c3[n+](cc2c1OC)CCc1cc2c(cc1-3)OCO2 | 1.99 µM | 1.44 µM | – | – | 1.48 µM | 1.14 µM | 1.31 µM | 1.84 µM | – | 0.467 µM | 370 nM | 0.365 µM | 1.4 µM | 0.322 µM | 0.325 µM | 0.362 µM | 0.228 µM | – | – | –
7 | CC(=O)[CH-]C(=O)c1ccccc1.CC(=O)[CH-]C(=O)c1ccccc1.CC[C@H](/C=C/C(C)[C@H]1CCC2[C@@H]3CC=C4C[C@@H]([O-])CC[C@]4(C)C3CC[C@@]21C)C(C)C.CC[C@H](/C=C/C(C)[C@H]1CCC2[C@@H]3CC=C4C[C@@H]([O-])CC[C@]4(C)C3CC[C@@]21C)C(C)C.Cl.[Ti+4] (stereo partly specified) | > 25 µM | > 25 µM | > 25 µM | > 25 µM | > 25 µM | – | – | – | – | > 25 µM | > 25000 nM | – | – | – | – | > 25 µM | – | > 25 µM | > 25 µM | –
8 | CN(C)CC1C(=O)O[C@H]2[C@H]1CC/C(COC(=O)NCc1ccc(Cn3c(=O)sn(CCCI)c3=O)cc1)=C\CC[C@@]1(C)O[C@@H]21 (stereo partly specified) | 10.3 µM | 1.69 µM | 6.01 µM | 1.97 µM | 15.7 µM | 2.56 µM | 2.73 µM | – | – | 3.19 µM | 913 nM | 1.84 µM | 7.93 µM | 1.13 µM | – | 7.71 µM | 0.786 µM | 1.02 µM | 0.922 µM | –
9 | CCOC(=O)C(=O)Nc1c(C)cccc1C(C)(C)C | > 100 µM | > 100 µM | > 100 µM | > 100 µM | > 100 µM | > 100 µM | – | – | – | – | – | – | – | – | – | – | – | – | – | –
10 | COc1ccc(/C=C\c2cc(OC)c(OC)c(OC)c2)cc1OC(=O)CC(N)C(=O)O (stereo unspecified) | > 100 µM | – | > 100 µM | > 100 µM | – | 77.3 µM | 0.000316 µM | – | – | – | 0.0639 nM | – | – | – | – | 0.000979 µM | 0.00339 µM | 0.000493 µM | 0.00355 µM | 0.0244 µM
11 | NC(=O)C(=O)C1C(=O)N(c2ccccc2)N=C1N (stereo unspecified) | – | > 100 µM | > 100 µM | > 100 µM | > 100 µM | > 100 µM | – | – | – | – | – | – | – | – | – | – | – | – | – | –
12 | CN(CCCN1C(=O)c2cccc3cc([N+](=O)[O-])cc(c23)C1=O)CCN(C)CCCN1C(=O)c2cccc3cc([N+](=O)[O-])cc(c23)C1=O | > 39.3 µM | – | > 39.3 µM | > 39.3 µM | > 39.3 µM | – | – | – | – | – | – | – | – | – | – | – | – | – | – | –
13 | CCCCCCCCC(C)CCCCCCCCC(=O)OCC(COP(=O)([O-])OCC[N+](C)(C)C)OC(=O)CCCCCCCCC(C)CCCCCCCC (stereo unspecified) | > 100 µM | > 100 µM | > 100 µM | > 100 µM | > 100 µM | > 100 µM | – | – | – | – | – | – | – | – | – | – | – | – | – | –
14 | Cc1ccc(C2[C@H]3C(=O)N(c4ccc(Cc5ccc(N6C(=O)[C@@H]7ON(c8ccccc8)C(c8ccc(C)cc8)[C@@H]7C6=O)cc5)cc4)C(=O)[C@H]3ON2c2ccccc2)cc1 (stereo partly specified) | – | > 100 µM | > 100 µM | > 100 µM | > 100 µM | > 100 µM | – | – | – | – | – | – | – | – | – | – | – | – | – | –
15 | CC(=O)CCc1ccc(Oc2c3c(nc4ccccc24)OCC3)cc1 | 98.6 µM | > 100 µM | > 100 µM | > 100 µM | > 100 µM | > 100 µM | – | 23.6 µM | > 100 µM | 13.8 µM | > 100000 nM | 67.5 µM | > 100 µM | – | 3.7 µM | > 100 µM | 42.9 µM | 59.3 µM | > 100 µM | 60.6 µM
16 | CCCCCN(CCCCC)C(=O)[C@H](CCC(=O)O)NC(=O)c1cc2ccccc2[nH]1 | > 100 µM | > 100 µM | > 100 µM | > 100 µM | > 100 µM | 99.4 µM | – | – | – | – | – | – | – | – | – | – | – | – | – | –
